Test results from EPA's ToxRefDB 2.

Legend:
mouse [1] = conditions: Developmental neurotoxicity study, other, Oral, Gavage/Intubation, dose end: 147 PND, group: cannot be grouped
rat [2] = conditions: Prenatal developmental toxicity study, wistar, Oral, Gavage/Intubation, dose end: 18 GD
mouse [3] = conditions: Prenatal developmental toxicity study, cd1, Injection, Subcutaneous, dose end: 16 GD
mouse [4] = conditions: Prenatal developmental toxicity study; cd1; Oral; Gavage/Intubation; dose end: 16 GD; group: developmental; developmental / developmental landmark / vaginal opening / vaginal opening + systemic / in life observation / body weight / litter weight + …
mouse [5] = conditions: Multigenerational reproductive toxicity study, cd1, Oral, Feed, dose end: 1 generation
mouse [6] = conditions: Multigenerational reproductive toxicity study; cd1; Oral; Feed; dose end: 2 generation; group: reproductive; reproductive / reproductive performance / reproductive performance other / NOS + reproductive / reproductive performance / fertility / …
rat [7] = conditions: Prenatal developmental toxicity study, other, Oral, Gavage/Intubation, dose end: 15 GD
rat [8] = conditions: Subchronic oral toxicity in rodents, other, Gavage/Intubation, dose end: 90 day, group: systemic, systemic / pathology microscopic / stomach / inflammation + systemic / pathology gross / stomach / thickened + systemic / pathology …
rat [9] = conditions: Prenatal developmental toxicity study, other, Oral, Gavage/Intubation, dose end: 15 GD; remark: listed apart in the source
[10] = systemic / clinical chemistry / [other] / [other] + systemic / in life observation / clinical signs / [other] + systemic / in life …
[11] = systemic / in life observation / clinical signs / [other] + systemic / in life observation / clinical signs / aggressive behavior
[12] = group: developmental, systemic / in life observation / body weight / offspring (pup) weight + systemic / organ weight / epididymis / absolute + systemic / organ …
[13] = group: maternal, reproductive / reproductive performance / gestational length / gestational length + systemic / in life observation / body weight / body …
[14] = group: developmental, developmental / developmental malformation / general / [other] + developmental / developmental landmark / nipple development / nipple …
[15] = group: maternal, systemic / in life observation / body weight / body weight gain
[16] = group: developmental, developmental / developmental malformation / bone / curled + developmental / developmental malformation / mouth / jaw / cleft palate + …
[17] = group: developmental, developmental / developmental malformation / bone / bent + developmental / developmental malformation / mouth / jaw / cleft palate + …
[18] = group: maternal, systemic / in life observation / body weight / body weight
[19] = group: maternal, systemic / in life observation / body weight / body weight + reproductive / reproductive performance / resorptions / resorptions + systemic…

SMILES: CC/C(=C(/CC)c1ccc(O)cc1)c1ccc(O)cc1 [Diethylstilbestrol]
- LOAEL (mouse [1]; [10]): > 0.003 mg/kg/day
- NOAEL (mouse [1]; [10]): ≥ 0.003 mg/kg/day
- LEL (mouse [1]; [11]): 0.0003 mg/kg/day
- NEL (mouse [1]; [11]): < 0.0003 mg/kg/day
- LEL (rat [2]; [12]): 0.03 mg/kg/day
- LOAEL (rat [2]; [12]): > 0.03 mg/kg/day
- NEL (rat [2]; [12]): < 0.03 mg/kg/day
- NOAEL (rat [2]; [12]): ≥ 0.03 mg/kg/day
- LEL (rat [2]; [13]): 0.03 mg/kg/day
- LOAEL (rat [2]; [13]): > 0.03 mg/kg/day
- NEL (rat [2]; [13]): < 0.03 mg/kg/day
- NOAEL (rat [2]; [13]): ≥ 0.03 mg/kg/day
- LEL (mouse [3]; [14]): 0.1 mg/kg/day
- LOAEL (mouse [3]; [14]): > 0.1 mg/kg/day
- NEL (mouse [3]; [14]): 0.05 mg/kg/day
- NOAEL (mouse [3]; [14]): ≥ 0.1 mg/kg/day
- LEL (mouse [3]; [15]): 0.0025 mg/kg/day
- LOAEL (mouse [3]; [15]): 0.0025 mg/kg/day
- NEL (mouse [3]; [15]): < 0.0025 mg/kg/day
- NOAEL (mouse [3]; [15]): < 0.0025 mg/kg/day
- LEL (mouse [4]): 0.01 mg/kg/day
- LOAEL (mouse [4]): > 0.01 mg/kg/day
- NEL (mouse [4]): < 0.01 mg/kg/day
- NOAEL (mouse [4]): ≥ 0.01 mg/kg/day
- NOAEL (mouse [5]; group: offspring, systemic / in life observation / body weight / offspring (pup) weight): ≥ 7.5e-09 mg/kg/day
- NOAEL (mouse [5]; group: reproductive, reproductive / reproductive performance / reproductive performance other / NOS + reproductive / reproductive performance / fertility / …): ≥ 7.5e-09 mg/kg/day
- NOAEL (mouse [6]): ≥ 7.5e-09 mg/kg/day

SMILES: CCC12COCN1COC2 [5-Ethyl-1-aza-3,7-dioxabicyclo[3.3.0]octane]
- LEL (rat [7]; [16]): 650 mg/kg/day
- LOAEL (rat [7]; [16]): 650 mg/kg/day
- NEL (rat [7]; [16]): 250 mg/kg/day
- NOAEL (rat [7]; [16]): 250 mg/kg/day
- LEL (rat [7]; [15]): 650 mg/kg/day
- LOAEL (rat [7]; [15]): 650 mg/kg/day
- NEL (rat [7]; [15]): 250 mg/kg/day
- NOAEL (rat [7]; [15]): 250 mg/kg/day
- LEL (rat [8]): 50 mg/kg/day
- LOAEL (rat [8]): 50 mg/kg/day
- LEL (rat [9]; [17]): 750 mg/kg/day
- LOAEL (rat [9]; [17]): 750 mg/kg/day
- NEL (rat [9]; [17]): 500 mg/kg/day
- NOAEL (rat [9]; [17]): 500 mg/kg/day
- LEL (rat [9]; [18]): 500 mg/kg/day
- LOAEL (rat [9]; [18]): 500 mg/kg/day
- NEL (rat [9]; [19]): 250 mg/kg/day
- NOAEL (rat [9]; [19]): 250 mg/kg/day
